Data as given in paper PMC9739780, “Pharmacokinetic Comparison of Eight Major Compounds of Lonicerae japonicae flos after Oral Administration in Normal Rats and Rats with Liver Injury” (Molecules, 2022).

Legend:
[1] = Pharmacokinetics after oral administration of LJF extract in normal rats; type: in vivo, Sprague-Dawley rats
Procedure: (§1) This method has been successfully applied to study the pharmacokinetics of LJF orally in normal rats and acute liver injury rats. The pharmacokinetic parameters were analyzed using the […] model analysis on the DAS 2.0 platform. The mean plasma concentration–time curves of 3-CQA, 4-CQA, 5-CQA, 3,5-diCQA, 4,5-diCQA, PA, Secoxyloganin, and Sweroside are shown in Figure 4. Pharmacokinetic parameters included: Cmax, Tmax, area under the concentration–time curve (AUC0–t), AUC0–∞, MRT0–t, and MRT0–∞, as shown in Table 6 and Figure 4.
(§2) […] male Sprague-Dawley rats with body weights of 250 ± 20 g were purchased from the Experimental Animal Center of Heilongjiang University of Chinese Medicine and fed in the SPF animal laboratory, under a standard room temperature of 25 ± 2 °C, relative humidity of 50 ± 15%, and a 12 h light/12 h dark cycle. The experiment followed the ethical norms of experimental animals of Heilongjiang University of Chinese Medicine (License number: SCXK (Hei) 2021-004). Twelve rats were randomly divided into normal and model groups of six rats each. After intraperitoneal injection of CCl4 (0.06 mL/kg) for 24 h, blood samples were collected into heparinized tubes via the orbital vein, centrifuged at 2000 r/min for 20 min, and the levels of AST and ALT in serum were determined by the microplate method.
(§3) The pharmacokinetic properties and parameters of 3-CQA, 4-CQA, 5-CQA, 3,5-diCQA, 4,5-diCQA, PA, Secoxyloganin, and Sweroside in rats were studied after oral administration of the LJF extract. […] The supernatant plasma was then transferred to a 1.5 mL centrifuge tube and stored at −20 °C for later use.
(§4) Here, 100 μL aliquots of the plasma sample were thawed and pipetted into centrifuge tubes and 10 μL of chloramphenicol solution (500 ng/mL) and daidzein solution (500 ng/mL) were added, respectively, and 780 μL of methanol was added to precipitate for 5 min. Then, the supernatant was centrifuged for 5 min at 12,000 rp/min. The supernatant was transferred to a nitrogen blowing machine and dried at 40 °C. The residue was reconstituted in 100 μL of 50% methanol, and the sample was filtered through the membrane and then injected into the UPLC-MS/MS system.
(§5) DAS 2.0 software was used to calculate the pharmacokinetic parameters of the […] model, including Cmax, Tmax, AUC0–t, AUC0–∞, MRT0–t, MRT0–∞, and t1/2. The statistical software GraphPad Prism 5.0 was used for graph plotting and statistical analysis of drug duration curves.

[2] = Pharmacokinetics after oral administration of LJF extract in CCl4-induced liver injury model rats; type: in vivo, Sprague-Dawley rats; conditions: for AUC(0-t) / AUC(0-inf) / Cmax / MRT last / MRT inf / Tmax / half-life: male, Sprague-Dawley
Procedure: Intraperitoneal injection of CCl4 was used to induce liver injury in rats, and the successful establishment of the model was measured by detecting ALT and AST in rat plasma.
as §1, §2, §3, §4, §5

[3] = male, Sprague-Dawley, rat, normal group (N), oral LJF ethanol extract 15.75 g/kg, plasma, mean ± SD, n = 6, read-out: AUC0–t
[4] = male, Sprague-Dawley, rat, normal group (N), oral LJF ethanol extract 15.75 g/kg, plasma, mean ± SD, n = 6, read-out: AUC0–∞
[5] = male, Sprague-Dawley, rat, normal group (N), oral LJF ethanol extract 15.75 g/kg, plasma, mean ± SD, n = 6, read-out: Cmax
[6] = male, Sprague-Dawley, rat, normal group (N), oral LJF ethanol extract 15.75 g/kg, plasma, mean ± SD, n = 6, read-out: MRT0–t
[7] = male, Sprague-Dawley, rat, normal group (N), oral LJF ethanol extract 15.75 g/kg, plasma, mean ± SD, n = 6, read-out: MRT0–∞
[8] = male, Sprague-Dawley, rat, normal group (N), oral LJF ethanol extract 15.75 g/kg, plasma, mean ± SD, n = 6, read-out: Tmax
[9] = male, Sprague-Dawley, rat, normal group (N), oral LJF ethanol extract 15.75 g/kg, plasma, mean ± SD, n = 6, read-out: t1/2 (converted)
[10] = rat, liver injury model group (M, CCl4), oral LJF ethanol extract 15.75 g/kg, plasma, mean ± SD, n = 6, read-out: AUC0–t
[11] = rat, liver injury model group (M, CCl4), oral LJF ethanol extract 15.75 g/kg, plasma, mean ± SD, n = 6, read-out: AUC0–∞
[12] = rat, liver injury model group (M, CCl4), oral LJF ethanol extract 15.75 g/kg, plasma, mean ± SD, n = 6, read-out: Cmax
[13] = rat, liver injury model group (M, CCl4), oral LJF ethanol extract 15.75 g/kg, plasma, mean ± SD, n = 6, read-out: MRT0–t
[14] = rat, liver injury model group (M, CCl4), oral LJF ethanol extract 15.75 g/kg, plasma, mean ± SD, n = 6, read-out: MRT0–∞
[15] = rat, liver injury model group (M, CCl4), oral LJF ethanol extract 15.75 g/kg, plasma, mean ± SD, n = 6, read-out: Tmax
[16] = rat, liver injury model group (M, CCl4), oral LJF ethanol extract 15.75 g/kg, plasma, mean ± SD, n = 6, read-out: t1/2 (converted)
[17] = result in words, oral LJF extract, rat plasma
[18] = male, Sprague-Dawley, rat, in vivo, po, 15.75 g/kg

SMILES	AUC(0-t) [1, 3] [ng·h/mL]	AUC(0-inf) [1, 4] [ng·h/mL]	Cmax [1, 5] [ng/mL]	MRT last [1, 6] [h]	MRT inf [1, 7] [h]	Tmax [1, 8] [h]	half-life [1, 9] [h]	AUC(0-t) [2, 10] [ng·h/mL]	AUC(0-inf) [2, 11] [ng·h/mL]	Cmax [2, 12] [ng/mL]	MRT last [2, 13] [h]	MRT inf [2, 14] [h]	Tmax [2, 15] [h]	half-life [2, 16] [h]	AUC0–t, model group compared with the normal group [2, 17]	AUC0–∞, model group compared with the normal group [2, 17]	Cmax, model group compared with the normal group [2, 17]	Tmax, model group compared with the normal group [2, 17]	AUC(0-inf) [1, 18] [ng·h/mL]	AUC(0-t) [1, 18] [ng·h/mL]	other results
O=C(/C=C/c1ccc(O)c(O)c1)O[C@@H]1C[C@](O)(C(=O)O)C[C@@H](O)[C@H]1O [5-CQA, 5-caffeoylquinic acid]			266 ± 102	18 ± 2.34	21.4 ± 2.86		17.9 ± 9.97	3570 ± 686	3970 ± 712	1120 ± 316		20.9 ± 8.54		18.9 ± 18.4	increased	increased	increased	not significantly different			Tmax ([1]; normal group (N), oral LJF ethanol extract 15.75 g/kg, plasma, mean ± SD, n = 6): 0.24 ± 0.03405 h; MRT0–t ([2]; liver injury model group (M, CCl4), oral LJF ethanol extract 15.75 g/kg, plasma, mean ± SD, n = 6): 11.08 ± 2.42 h
C=C[C@H]1[C@H](O[C@@H]2O[C@H](CO)[C@@H](O)[C@H](O)[C@H]2O)OC=C(C(=O)OC)[C@H]1CC(=O)O [Secoxyloganin]																			7610 ± 4120	6230 ± 1070	Cmax [1, 18]: 1510 ± 331 ng/mL; MRT inf [1, 18]: 12.4 ± 1.04 h; MRT last [1, 18]: 11.9 ± 1.69 h; Tmax [1, 18]: 0.46 ± 0.102 h; half-life [1, 18]: 16.1 ± 19.1 h; AUC(0-inf) ([2]; rat, in vivo, po, 15.75 g/kg): 17100 ng·h/mL; AUC(0-t) ([2]; rat, in vivo, po, 15.75 g/kg): 15000 ng·h/mL; Cmax ([2]; rat, in vivo, po, 15.75 g/kg): 4150 ± 377 ng/mL; MRT inf ([2]; rat, in vivo, po, 15.75 g/kg): 18.2 ± 2.24 h; MRT last ([2]; rat, in vivo, po, 15.75 g/kg): 8.74 ± 0.58 h; Tmax ([2]; rat, in vivo, po, 15.75 g/kg): 0.29 ± 0.102 h; half-life ([2]; rat, in vivo, po, 15.75 g/kg): 23.6 ± 3.48 h; Cmax, model group compared with the normal group ([2]; rat, in vivo, po): significantly higher; MRT0–∞, model group compared with the normal group ([2]; rat, in vivo, po): significantly higher; Tmax, model group compared with the normal group ([2]; rat, in vivo, po): significantly lower
C=C[C@H]1[C@H](O[C@@H]2O[C@H](CO)[C@@H](O)[C@H](O)[C@H]2O)OC=C2C(=O)OCC[C@H]21 [Sweroside]																			10000	9690 ± 1410	Cmax [1, 18]: 1930 ± 609 ng/mL; MRT0–t [1, 18]: 12.29 ± 1.14 h; MRT inf [1, 18]: 13.9 ± 1.86 h; Tmax [1, 18]: 0.53 ± 0.38 h; half-life [1, 18]: 9.78 ± 2.87 h; AUC(0-inf) ([2]; rat, in vivo, po, 15.75 g/kg): 16700 ng·h/mL; AUC(0-t) ([2]; rat, in vivo, po, 15.75 g/kg): 16000 ng·h/mL; Cmax ([2]; rat, in vivo, po, 15.75 g/kg): 2364.23 ± 440 ng/mL; MRT inf ([2]; rat, in vivo, po, 15.75 g/kg): 13.7 ± 1.33 h; MRT last ([2]; rat, in vivo, po, 15.75 g/kg): 11.3 ± 0.48 h; Tmax ([2]; rat, in vivo, po, 15.75 g/kg): 0.67 ± 0.26 h; half-life ([2]; rat, in vivo, po, 15.75 g/kg): 11.8 ± 1.51 h; AUC0–∞, model group compared with the normal group ([2]; rat, in vivo, po): significantly higher; Cmax, model group compared with the normal group ([2]; rat, in vivo, po): increased compared with that in the normal group, but there was no significant difference

More lines, main results first:

AUC(0-t) [1, 3] [ng·h/mL]	AUC(0-inf) [1, 4] [ng·h/mL]	Cmax [1, 5] [ng/mL]	MRT last [1, 6] [h]	MRT inf [1, 7] [h]	Tmax [1, 8] [h]	half-life [1, 9] [h]	SMILES	AUC(0-t) [2, 10] [ng·h/mL]	AUC(0-inf) [2, 11] [ng·h/mL]	Cmax [2, 12] [ng/mL]	MRT last [2, 13] [h]	MRT inf [2, 14] [h]	Tmax [2, 15] [h]	half-life [2, 16] [h]	AUC0–t, model group compared with the normal group [2, 17]	AUC0–∞, model group compared with the normal group [2, 17]	Cmax, model group compared with the normal group [2, 17]	Tmax, model group compared with the normal group [2, 17]	AUC(0-inf) [1, 18] [ng·h/mL]	AUC(0-t) [1, 18] [ng·h/mL]	other results
2170 ± 616	2340 ± 569	1110 ± 448	9.65 ± 1.72	14.7 ± 4.18	0.208 ± 0.0457	15.2 ± 5.24	O=C(/C=C/c1ccc(O)c(O)c1)O[C@@H]1[C@H](O)C[C@@](O)(C(=O)O)C[C@@H]1O (stereo in doubt) [4-CQA, 4-caffeoylquinic acid]	5970 ± 1800	6810 ± 1140	2370 ± 425	10.1 ± 1.06	29.7 ± 24.8	0.14 ± 0.043	42.2 ± 31.7	increased	increased	increased	significantly decreased			
12100	13100	5110 ± 1220	13.9 ± 1.31	18.2 ± 1.94	0.208 ± 0.0457	12.9 ± 0.765	O=C(/C=C/c1ccc(O)c(O)c1)O[C@H]1C[C@](O)(C(=O)O)C[C@@H](O)[C@H]1O [3-CQA, 3-caffeoylquinic acid]	16400	17400	6290 ± 1260	13.4 ± 1.67	23.3 ± 11.2	0.19 ± 0.043	12.2 ± 3.12	significantly increased	significantly increased	increased but there was no significant difference				
198 ± 37	292 ± 26	22.6 ± 8.36	23.2 ± 0.86	44.1 ± 16.9	0.33 ± 0.13	24.8 ± 12.8	O=C(O)c1ccc(O)c(O)c1 [PA, protocatechuic acid]	219 ± 59.1	547 ± 209	23 ± 2.97	26.6 ± 2.13	49.8 ± 28.9	0.18 ± 0.034	25.5 ± 17		increased		reached the peak earlier			clearance rate, model group compared with the normal group ([2]; result in words, oral LJF extract): decreased; MRT0–t, model group compared with the normal group [2, 17]: prolonged
